Experimental data taken from patent publication US11445724B2, “Insecticidal compounds” (SYNGENTA PARTICIPATIONS AG, priority 2013, dated 2022).

How the values were obtained:
Format in all cases: in vivo
[1] = tested on: Spodoptera littoralis (Egyptian cotton leafworm); assay: Spodoptera littoralis (Egyptian cotton leafworm) mortality, sprayed cotton leaf discs; details: foliar, 72 h, 200 ppm spray on cotton leaf discs, L1 larvae, mortality 3 DAT
[2] = tested on: Plutella xylostella (Diamond back moth); assay: Plutella xylostella (Diamond back moth) larval mortality, artificial diet in 24-well MTP; details: 144 h, application rate 200 ppm (concentration in well 18 ppm), L2 larvae, larval mortality after 6 days
[3] = tested on: Thrips tabaci (Onion thrips); assay: Thrips tabaci (Onion thrips) mortality, sprayed sunflower leaf discs; details: foliar, 168 h, 200 ppm spray on sunflower leaf discs, mixed ages, mortality after 7 days
[4] = tested on: Diabrotica balteata (Corn root worm); assay: Diabrotica balteata (Corn root worm) larval mortality, artificial diet in 24-well MTP; details: 120 h, application rate 200 ppm (concentration in well 18 ppm), L2 larvae, larval mortality after 5 days
[5] = tested on: Myzus persicae (Green peach aphid); assay: Myzus persicae (Green peach aphid) mortality, sprayed sunflower leaf discs; details: foliar, 144 h, 200 ppm spray on sunflower leaf discs, mixed ages, mortality 6 DAT

Measured: pest or weed control at 200 ppm

O=C(Nc1cccc(C(=O)Nc2c(Br)cc(C(F)(C(F)(F)F)C(F)(F)F)cc2OC(F)F)c1F)c1ccccc1C(F)(F)F [Compound 34]
≥ 80%: [1] | [2] | [3]

O=C(Nc1cccc(C(=O)Nc2c(Br)cc(C(F)(C(F)(F)F)C(F)(F)F)cc2OC(F)F)c1F)c1cc(C(F)(F)F)ccc1F [Compound 42]
not listed: [5]
≥ 80%: all other assays above

COc1c(NC(=O)c2ccc(F)c(C(F)(F)F)c2)cccc1C(=O)Nc1c(Br)cc(C(F)(C(F)(F)F)C(F)(F)F)cc1OC(F)F [Compound 52]
≥ 80%: all assays above

O=C(Nc1cccc(C(=O)Nc2c(Cl)cc(C(F)(C(F)(F)F)C(F)(F)F)cc2OC(F)F)c1F)c1cc(Cl)ccc1F [Compound 55]
not listed: [5]
≥ 80%: all other assays above

COc1ccccc1C(=O)Nc1cccc(C(=O)Nc2c(Br)cc(C(F)(C(F)(F)F)C(F)(F)F)cc2OC(F)F)c1OC [Compound 58]
not listed: [5]
≥ 80%: all other assays above

COc1c(NC(=O)c2ccccc2C(F)(F)F)cccc1C(=O)Nc1c(Br)cc(C(F)(C(F)(F)F)C(F)(F)F)cc1OC(F)F [Compound 63]
≥ 80%: all assays above

O=C(Nc1cccc(C(=O)Nc2c(Cl)cc(C(F)(C(F)(F)F)C(F)(F)F)cc2OC(F)F)c1F)c1ccccc1OC(F)(F)F [Compound 65]
≥ 80%: [1]

COc1c(NC(=O)c2cccc(F)c2F)cccc1C(=O)Nc1c(Br)cc(C(F)(C(F)(F)F)C(F)(F)F)cc1OC(F)F [Compound 69]
≥ 80%: all assays above

O=C(Nc1cccc(C(=O)Nc2c(Cl)cc(C(F)(C(F)(F)F)C(F)(F)F)cc2OC(F)F)c1F)c1ccccc1C(F)(F)F [Compound 72]
≥ 80%: [1] | [2]

COc1c(NC(=O)c2cc(C(F)(F)F)ccc2F)cccc1C(=O)Nc1c(Br)cc(C(F)(C(F)(F)F)C(F)(F)F)cc1OC(F)F [Compound 73]
≥ 80%: [1] | [5]

COc1c(NC(=O)c2ccccc2F)cccc1C(=O)Nc1c(Cl)cc(C(F)(C(F)(F)F)C(F)(F)F)cc1OC(F)F [Compound 75]
≥ 80%: [1] | [2] | [3]

O=C(Nc1cccc(C(=O)Nc2c(Cl)cc(C(F)(C(F)(F)F)C(F)(F)F)cc2OC(F)F)c1F)c1cc(C(F)(F)F)ccc1F [Compound 80]
not listed: [5]
≥ 80%: all other assays above

COc1c(NC(=O)c2ccc(C)cc2)cccc1C(=O)Nc1c(Cl)cc(C(F)(C(F)(F)F)C(F)(F)F)cc1OC(F)F [Compound 82]
≥ 80%: all assays above

COc1c(NC(=O)c2cc(Cl)ccc2F)cccc1C(=O)Nc1c(Cl)cc(C(F)(C(F)(F)F)C(F)(F)F)cc1OC(F)F [Compound 85]
≥ 80%: [1]

COc1c(NC(=O)c2ccc(F)c(C(F)(F)F)c2)cccc1C(=O)Nc1c(Cl)cc(C(F)(C(F)(F)F)C(F)(F)F)cc1OC(F)F [Compound 88]
≥ 80%: [1] | [2] | [3]

COc1c(NC(=O)c2ccccc2OC(F)(F)F)cccc1C(=O)Nc1c(Cl)cc(C(F)(C(F)(F)F)C(F)(F)F)cc1OC(F)F [Compound 90]
not listed: [5]
≥ 80%: all other assays above

COc1ccccc1C(=O)Nc1cccc(C(=O)Nc2c(Cl)cc(C(F)(C(F)(F)F)C(F)(F)F)cc2OC(F)F)c1OC [Compound 91]
≥ 80%: [1] | [2] | [4]

COc1c(NC(=O)c2cccc(F)c2F)cccc1C(=O)Nc1c(Cl)cc(C(F)(C(F)(F)F)C(F)(F)F)cc1OC(F)F [Compound 96]
≥ 80%: [1] | [5] | [2]

COc1c(NC(=O)c2cc(C(F)(F)F)ccc2F)cccc1C(=O)Nc1c(Cl)cc(C(F)(C(F)(F)F)C(F)(F)F)cc1OC(F)F [Compound 98]
≥ 80%: [1]

CCN(C(=O)c1ccccc1OC(F)(F)F)c1cccc(C(=O)Nc2c(Cl)cc(C(F)(C(F)(F)F)C(F)(F)F)cc2OC(F)F)c1F [Compound 118]
≥ 80%: [1] | [2] | [4]

CCN(C(=O)c1ccccc1C(F)(F)F)c1cccc(C(=O)Nc2c(Cl)cc(C(F)(C(F)(F)F)C(F)(F)F)cc2OC(F)F)c1F [Compound 121]
not listed: [5]
≥ 80%: all other assays above

CCN(C(=O)c1ccccc1C)c1cccc(C(=O)Nc2c(Br)cc(C(F)(C(F)(F)F)C(F)(F)F)cc2OC(F)F)c1OC [Compound 130]
≥ 80%: [1] | [2] | [4]

CCN(C(=O)c1ccccc1Cl)c1cccc(C(=O)Nc2c(Br)cc(C(F)(C(F)(F)F)C(F)(F)F)cc2OC(F)F)c1OC [Compound 131]
≥ 80%: all assays above

CCN(C(=O)c1ccc(C)cc1)c1cccc(C(=O)Nc2c(Br)cc(C(F)(C(F)(F)F)C(F)(F)F)cc2OC(F)F)c1OC [Compound 132]
≥ 80%: all assays above

CCN(C(=O)c1cc(Cl)ccc1F)c1cccc(C(=O)Nc2c(Br)cc(C(F)(C(F)(F)F)C(F)(F)F)cc2OC(F)F)c1OC [Compound 134]
not listed: [5]
≥ 80%: all other assays above

CCN(C(=O)c1ccccc1OC(F)(F)F)c1cccc(C(=O)Nc2c(Br)cc(C(F)(C(F)(F)F)C(F)(F)F)cc2OC(F)F)c1OC [Compound 136]
≥ 80%: [4]

CCN(C(=O)c1ccccc1C(F)(F)F)c1cccc(C(=O)Nc2c(Br)cc(C(F)(C(F)(F)F)C(F)(F)F)cc2OC(F)F)c1OC [Compound 140]
≥ 80%: all assays above

CCN(C(=O)c1cc(C(F)(F)F)ccc1F)c1cccc(C(=O)Nc2c(Br)cc(C(F)(C(F)(F)F)C(F)(F)F)cc2OC(F)F)c1OC [Compound 144]
≥ 80%: [1] | [2] | [3]

CCN(C(=O)c1ccccc1F)c1cccc(C(=O)Nc2c(Cl)cc(C(F)(C(F)(F)F)C(F)(F)F)cc2OC(F)F)c1OC [Compound 145]
not listed: [5]
≥ 80%: all other assays above

CCN(C(=O)c1ccccc1C)c1cccc(C(=O)Nc2c(Cl)cc(C(F)(C(F)(F)F)C(F)(F)F)cc2OC(F)F)c1OC [Compound 146]
≥ 80%: [1] | [2] | [4]

CCN(C(=O)c1ccc([N+](=O)[O-])cc1)c1cccc(C(=O)Nc2c(Cl)cc(C(F)(C(F)(F)F)C(F)(F)F)cc2OC(F)F)c1OC [Compound 148]
≥ 80%: [4] | [3]

CCN(C(=O)c1ccc(F)cc1C)c1cccc(C(=O)Nc2c(Cl)cc(C(F)(C(F)(F)F)C(F)(F)F)cc2OC(F)F)c1OC [Compound 150]
not listed: [5]
≥ 80%: all other assays above

CCN(C(=O)c1cc(Cl)ccc1F)c1cccc(C(=O)Nc2c(Cl)cc(C(F)(C(F)(F)F)C(F)(F)F)cc2OC(F)F)c1OC [Compound 151]
not listed: [5]
≥ 80%: all other assays above

CCN(C(=O)c1ccccc1OC(F)(F)F)c1cccc(C(=O)Nc2c(Cl)cc(C(F)(C(F)(F)F)C(F)(F)F)cc2OC(F)F)c1OC [Compound 153]
≥ 80%: [4] | [3]

CCN(C(=O)c1ccccc1C(F)(F)F)c1cccc(C(=O)Nc2c(Cl)cc(C(F)(C(F)(F)F)C(F)(F)F)cc2OC(F)F)c1OC [Compound 157]
not listed: [5]
≥ 80%: all other assays above

CCN(C(=O)c1ccc(F)c(C(F)(F)F)c1)c1cccc(C(=O)Nc2c(Br)cc(C(F)(C(F)(F)F)C(F)(F)F)cc2OC(F)F)c1OC [Compound 163]
≥ 80%: [2] | [4] | [3]
